We go through 3 compounds from paper PMC9265729, “A Genetic Toxicology Study of the Rapid Detection of Nitrosamine Compounds by the rpsL Gene Mutation Assay” (Foods, 2022).

The test system of series [1] is rpsL gene. Put plainly: rpsL gene mutation rate at the cellular level (E. coli MF101 + pMOL21 cultured with mutagen, Amp/Str plate selection). The note with it: for Mutation Rate of rpsL (mean ± SD): E. coli MF101 + pMOL21, mean of 4 experiments; for Mutation Rate of rpsL (single experiment): E. coli MF101 + pMOL21, single replicate; for genotoxicity / mutagenicity in words: NDEA, NDPA at 10 ppm, EB at lower concentrations. Here is the method: The mutagenicity detection of nitrosamine compounds was carried out using the rpsL gene on plasmid pMOL21 as a selectable marker. The ribosomal protein S12 encoded by the rpsL gene can form a complex with streptomycin and enhance the ability of streptomycin to bind to 16 S rRNA, thereby preventing the initiation of […]. When the rpsL gene is mutated, the interaction between 16 S rRNA and streptomycin is disrupted, resulting in cell resistance to streptomycin.
We adopted Escherichia coli MF101, whose rpsL gene is mutated, so this strain has streptomycin resistance. The plasmid pMOL21 contains ampicillin as a selection marker and the correct rpsL gene. […] For specific information on strains and plasmids, please refer to [14].
E. coli MF101 + pMOL21 were cultured with different concentrations (10 ppm, 100 ppm, or 1000 ppm) of NDEA or NDPA. Ten hours after growth, the strains were collected and spread on plates containing ampicillin (Amp^+, 50 μg/mL) to determine the total number of transformed cells and spread on plates containing ampicillin and streptomycin (Amp^+, Str^+, 50 μg/mL) to determine the number of colonies with rpsL gene mutations. The mutation rate is the ratio of the number of mutant colonies to the total number of colonies. […] The experimental data and images were statistically analyzed by Origin2018 software.

Series [2] has as its system rpsL gene. Put plainly: rpsL gene mutation rate in the PCR amplification system (Pfu DNA polymerase, mutagen added directly to the PCR system). The format is biochemical, Escherichia coli. The note with it: for Mutation Rate of rpsL in PCR (mean ± SD): mean of 4 experiments; for Mutation Rate of rpsL in PCR (single experiment): single replicate. The procedure:
The PCR system was as follows: 10 × PCR buffer (Mg^2+) 5 μL, dNTP 2 μL, pMOL21 plasmid template 1 μL, upstream and downstream primers 1 μL, Pfu DNA polymerase 0.5 μL, ddH2O supplemented to […] (nitrosamine compounds were directly added to the PCR system).
The PCR program was as follows: predenaturation at 95 °C for 5 min, denaturation at 94 °C for 30 s, annealing at 55 °C for 30 s, extension at 72 °C for 120 s, 25 cycles, full extension at 72 °C for 10 min, and storage at 16 °C.
The PCR products were recovered and ligated with restriction enzymes (MscI, BamH1), transformed into MF101 strains, plated on ampicillin-containing plates to determine the total number of transformed cells, and plated on ampicillin- and streptomycin-containing plates to identify rpsL gene-mutated colonies.
We measured the mutation rate of mutagen-induced rpsL gene mutations in the PCR system. The mutagen was added directly to the PCR system to determine the mutation rate of the rpsL gene during DNA amplification.

The subject of series [3] is rpsL gene. The series can be described thus: rpsL gene mutation rate in the RCA reaction system (phi29 DNA polymerase, mutagen added to the amplification reaction). In kind it is biochemical, Escherichia coli. The note with it: for Mutation Rate of rpsL in the RCA reaction (mean ± SD): mean of 4 experiments; for Mutation Rate of rpsL in the RCA reaction (single experiment): single replicate. Here is the method: Heat denaturation of samples and annealing reaction system of primers and plasmids: 1 μL of 10 × phi29 DNA polymerase reaction buffer, 2.5 μL of 100 μM random primers, 1 μL of plasmid pMOL21 to be amplified, and 4.3 μL of ddH2O. The above system was heated at 95 °C for 3 min and then placed on ice for 15 min.
Amplification reaction system: 10 mM dNTP 0.5 μL, 100 × BSA 0.2 μL, phi29 DNA polymerase 0.5 μL to the above reaction solution (nitrosamine compounds or EB are added to the amplification reaction system), and then incubated at 30 °C overnight.
Heat-inactivated phi29 DNA polymerase: heat at 65 °C for 10 min.
We then determined the mutation rate of mutagen-induced rpsL gene mutations in the RCA system. In this experiment, we adopted the method of directly adding a mutagen to the RCA amplification reaction solution to provide a direct mutagenic environment for the amplification of the rpsL gene. This method avoids the possibility of affecting the mutagenicity of NDEA, NDPA, or EB during thermal denaturation.

[4] abbreviates: 100 ppm mutagen in RCA reaction.
Where [5] appears, read: 1000 ppm mutagen in RCA reaction.

SMILES strings stand for the structures. Several values for one entry are separate records, joined by “and”; a condition that tells them apart may be missing. Equal values may be shown once.

With `CC[n+]1c(-c2ccccc2)c2cc(N)ccc2c2ccc(N)cc21` [EB, ethidium bromide, reference compound], the “Mutation Rate of rpsL (mean ± SD)” value in the series on rpsL gene [1] (10 ppm mutagen) was 3.71 10^−6 and 3.71 ± 0.502 10^−6; with rpsL gene [1] (100 ppm mutagen), 5.78 10^−6 and 5.78 ± 0.728 10^−6; in the series on rpsL gene [1] (1000 ppm mutagen) it was 7.87 10^−6 and 7.87 ± 1.842 10^−6. The “Mutation Rate of rpsL (single experiment)” value in the series on rpsL gene [1] (10 ppm mutagen) is 3.65 10^−6 and 4.38 10^−6 and 3.64 10^−6 and 3.16 10^−6; with rpsL gene [1] (100 ppm mutagen), 6.50 10^−6 and 6.05 10^−6 and 4.78 10^−6 and 5.79 10^−6; in the series with rpsL gene [1] (1000 ppm mutagen), 9.82 10^−6 and 6.71 10^−6 and 5.94 10^−6 and 9.01 10^−6. In the series on rpsL gene [1], the “genotoxicity / mutagenicity in words” value is “strong mutagenicity”. For the same compound, the “Mutation Rate of rpsL in PCR (mean ± SD)” value in the series on rpsL gene [2] (10 ppm mutagen in PCR system) is 4.06 10^−6 and 4.06 ± 0.471 10^−6; in the series with rpsL gene [2] (100 ppm mutagen in PCR system), 6.01 10^−6 and 6.01 ± 1.319 10^−6; in the series on rpsL gene [2] (1000 ppm mutagen in PCR system), 10.35 10^−6 and 10.35 ± 1.143 10^−6. Further, the “Mutation Rate of rpsL in PCR (single experiment)” value in the series with rpsL gene [2] (10 ppm mutagen in PCR system) is 4.23 10^−6 and 4.47 10^−6 and 4.15 10^−6 and 3.38 10^−6; in the series with rpsL gene [2] (100 ppm mutagen in PCR system), 5.99 10^−6 and 7.69 10^−6 and 4.47 10^−6 and 5.88 10^−6; in the series on rpsL gene [2] (1000 ppm mutagen in PCR system), 11.98 10^−6 and 9.32 10^−6 and 10.15 10^−6 and 9.94 10^−6. Further, the “Mutation Rate of rpsL in the RCA reaction (mean ± SD)” value with rpsL gene [3] (10 ppm mutagen in RCA reaction) is 3.81 10^−6 and 3.81 ± 0.335 10^−6; with rpsL gene [3] (setting [4]), 6.38 10^−6 and 6.38 ± 0.915 10^−6; in the series with rpsL gene [3] (setting [5]), 7.35 10^−6 and 7.35 ± 2.615 10^−6. Also, the “Mutation Rate of rpsL in the RCA reaction (single experiment)” value was 3.62 10^−6 and 4.31 10^−6 and 3.69 10^−6 in the series with rpsL gene [3] (10 ppm mutagen in RCA reaction); 7.26 10^−6 and 6.66 10^−6 and 5.10 10^−6 and 6.49 10^−6 in the series with rpsL gene [3] (setting [4]); 6.86 10^−6 and 4.07 10^−6 and 10.34 10^−6 and 8.11 10^−6 in the series on rpsL gene [3] (setting [5]).
On to `CCCN(CCC)N=O` [NDPA, N-dipropylnitrosamine], for which the “Mutation Rate of rpsL (mean ± SD)” value is 2.67 10^−6 and 2.67 ± 0.909 10^−6 with rpsL gene [1] (10 ppm mutagen); 4.75 10^−6 and 4.75 ± 1.417 10^−6 in the series with rpsL gene [1] (100 ppm mutagen); 5.14 10^−6 and 5.14 ± 1.433 10^−6 with rpsL gene [1] (1000 ppm mutagen). The “Mutation Rate of rpsL (single experiment)” value in the series with rpsL gene [1] (10 ppm mutagen) is 2.34 10^−6 and 1.70 10^−6 and 2.80 10^−6 and 3.86 10^−6; in the series on rpsL gene [1] (100 ppm mutagen), 5.72 10^−6 and 2.66 10^−6 and 5.09 10^−6 and 5.53 10^−6; with rpsL gene [1] (1000 ppm mutagen) it was 7.05 10^−6 and 4.20 10^−6 and 5.41 10^−6 and 3.89 10^−6. The “genotoxicity / mutagenicity in words” value with rpsL gene [1] is listed as “high genotoxicity”. Also, the “Mutation Rate of rpsL in PCR (mean ± SD)” value with rpsL gene [2] (10 ppm mutagen in PCR system) is 2.93 10^−6 and 2.93 ± 1.430 10^−6; with rpsL gene [2] (100 ppm mutagen in PCR system), 4.98 10^−6 and 4.98 ± 1.330 10^−6; with rpsL gene [2] (1000 ppm mutagen in PCR system) it was 6.85 10^−6 and 6.85 ± 1.316 10^−6. The “Mutation Rate of rpsL in PCR (single experiment)” value with rpsL gene [2] (10 ppm mutagen in PCR system) was 1.83 10^−6 and 1.92 10^−6 and 3.05 10^−6 and 4.91 10^−6; with rpsL gene [2] (100 ppm mutagen in PCR system), 6.16 10^−6 and 3.08 10^−6 and 5.45 10^−6 and 5.21 10^−6; in the series with rpsL gene [2] (1000 ppm mutagen in PCR system), 7.72 10^−6 and 8.12 10^−6 and 6.32 10^−6 and 5.25 10^−6. The “Mutation Rate of rpsL in the RCA reaction (mean ± SD)” value with rpsL gene [3] (10 ppm mutagen in RCA reaction) is 2.98 10^−6 and 2.98 ± 0.585 10^−6; in the series with rpsL gene [3] (setting [4]), 5.59 10^−6 and 5.59 ± 2.287 10^−6; in the series with rpsL gene [3] (setting [5]), 6.2 10^−6 and 6.20 ± 1.110 10^−6. In addition, the “Mutation Rate of rpsL in the RCA reaction (single experiment)” value with rpsL gene [3] (10 ppm mutagen in RCA reaction) was 2.18 10^−6 and 3.59 10^−6 and 3.05 10^−6 and 3.10 10^−6; in the series with rpsL gene [3] (setting [4]), 4.90 10^−6 and 3.85 10^−6 and 8.96 10^−6 and 4.67 10^−6; in the series on rpsL gene [3] (setting [5]), 7.78 10^−6 and 5.18 10^−6 and 5.96 10^−6 and 5.87 10^−6.
Turning to `CCN(CC)N=O` [NDEA, N-diethylnitrosamine], the “Mutation Rate of rpsL (mean ± SD)” value is 2.42 10^−6 and 2.42 ± 0.717 10^−6 with rpsL gene [1] (10 ppm mutagen); 3.76 10^−6 and 3.76 ± 0.852 10^−6 in the series on rpsL gene [1] (100 ppm mutagen); 4.82 10^−6 and 4.82 ± 1.738 10^−6 in the series on rpsL gene [1] (1000 ppm mutagen). For the same compound, the “Mutation Rate of rpsL (single experiment)” value in the series on rpsL gene [1] (10 ppm mutagen) is 1.44 10^−6 and 2.34 10^−6 and 2.95 10^−6 and 2.96 10^−6; in the series on rpsL gene [1] (100 ppm mutagen), 3.32 10^−6 and 2.81 10^−6 and 4.23 10^−6 and 4.69 10^−6; with rpsL gene [1] (1000 ppm mutagen), 2.89 10^−6 and 3.85 10^−6 and 6.02 10^−6 and 6.54 10^−6. Also, the “genotoxicity / mutagenicity in words” value with rpsL gene [1] was “high genotoxicity”. Also, the “Mutation Rate of rpsL in PCR (mean ± SD)” value in the series with rpsL gene [2] (10 ppm mutagen in PCR system) is 2.83 10^−6 and 2.83 ± 1.197 10^−6; with rpsL gene [2] (100 ppm mutagen in PCR system), 4.51 10^−6 and 4.51 ± 1.314 10^−6; in the series with rpsL gene [2] (1000 ppm mutagen in PCR system) it was 5.02 10^−6 and 5.02 ± 1.890 10^−6. The “Mutation Rate of rpsL in PCR (single experiment)” value in the series on rpsL gene [2] (10 ppm mutagen in PCR system) was 1.28 10^−6 and 2.65 10^−6 and 4.11 10^−6 and 3.30 10^−6; in the series on rpsL gene [2] (100 ppm mutagen in PCR system), 3.70 10^−6 and 3.09 10^−6 and 5.47 10^−6 and 5.77 10^−6; in the series with rpsL gene [2] (1000 ppm mutagen in PCR system) it was 3.16 10^−6 and 3.68 10^−6 and 6.23 10^−6 and 7.03 10^−6. Also, the “Mutation Rate of rpsL in the RCA reaction (mean ± SD)” value was 2.49 10^−6 and 2.49 ± 0.692 10^−6 in the series on rpsL gene [3] (10 ppm mutagen in RCA reaction); 3.62 10^−6 and 3.62 ± 0.316 10^−6 in the series on rpsL gene [3] (setting [4]); 5.54 10^−6 and 5.54 ± 2.444 10^−6 with rpsL gene [3] (setting [5]). The “Mutation Rate of rpsL in the RCA reaction (single experiment)” value is 1.79 10^−6 and 2.02 10^−6 and 3.20 10^−6 and 2.96 10^−6 in the series with rpsL gene [3] (10 ppm mutagen in RCA reaction); 3.47 10^−6 and 3.38 10^−6 and 3.55 10^−6 and 4.08 10^−6 in the series with rpsL gene [3] (setting [4]); 3.14 10^−6 and 3.96 10^−6 and 6.59 10^−6 and 8.46 10^−6 in the series on rpsL gene [3] (setting [5]).
